Laboratory results published in publication PMC8151276, “An Integrated Approach toward NanoBRET Tracers for Analysis of GPCR Ligand Engagement” (Molecules, 2021).

Assays:
Assay type in all cases: binding
NPBWR2 = target: T1, NPBWR2 (Homo sapiens, UniProt P48146); assay: NanoBRET screen HiBiT-NPBWR2 in HEK293
T1 construct: purchased Promega (in-house HiBiT-GPCR construct library, NanoBRET)
Procedure: (§1) Each tracer candidate was screened across the entire library of HiBiT-GPCR constructs using NanoBRET as the detection modality. As depicted in Figure 4A, the specificity of interactions was evaluated through decrease in BRET due to competitive displacement of a bound tracer by excess parental compound. Each tracer was analyzed for binding to each HiBiT-GPCR fusion in the absence and in the presence of competing parental compound. Briefly, HEK293 cells were transfected with HiBiT-GPCR constructs diluted into promoterless DNA to reduce expression and maximize translocation to the cell surface. Each tracer candidate was then screened at concentrations of 1 μM and 0.1 μM across cells expressing these fusions. Cells were treated for 1.5 h with tracer either alone or in the presence of 20 μM competing parental compound (i.e., control). BRET was measured upon addition of purified LgBiT and subsequent complementation with HiBiT genetically fused to a GPCR. The specificity of interactions was assessed through a decrease in BRET signal due to competitive displacement of the bound tracer. To further gauge the robustness of these interactions, the fold response over the control (i.e., BRETtracer/BRETcontrol) was calculated. We chose a 1.5-fold response, which translates to ≥7-fold signal over noise as the minimal threshold required to score an interaction as positive. […]. Below we highlight the screening results obtained for our exemplary fluorescent tracers based on Clozapine, Amitriptyline and AZD1283.
(§2) HiBiT-GPCR DNA constructs were diluted in 10 mM Tris pH 8 to a final concentration of 0.01 μg/μL, arrayed in 96-well plates and stored at −20 °C. For transfection, HEK293 cells were suspended in Opti-MEM (without phenol red) supplemented with 2% fetal bovine serum (Seradigm) and 100 units/mL penicillin–streptomycin (Gibco) at a final concentration of 220,000 cells/mL and dispensed into white 96-well plates at 90 μL/well. Subsequent transfections and screens were carried using an Agilent Bravo Automated Liquid Handling Platform. First, the 96-well HiBiT DNA arrays were diluted 25-fold in Opti-MEM (without serum or phenol red) to a final concentration of 0.0004 μg/μL and 20 μL of the diluted DNAs were transferred into new 96-well plates. Next, promoterless carrier DNA (1 μg/μL) was diluted 25-fold (0.04 μg/μL) and then dispensed into the diluted arrays at 20 μL/well. Following brief mixing, Viafect transfection reagent (Promega) diluted 16-fold into Opti-MEM was dispensed into the plates at 40 μL/well. After mixing by pipetting, plates were incubated for 10 min on the pipetting station deck. The DNA-transfection reagent complexes were then added to plates containing cells. To facilitate the screen, 10 μL of DNA-transfection reagent complexes were added in duplicates to the top 4 and bottom 4 rows, resulting in two identical 48-well arrays per plate. Plates with transfected cells were incubated for 18–20 h at 37 °C/5% CO2. A screen of each tracer across the entire library using two different concentrations requires duplicate plates of transfected cells. Depending on the number of tracers being screened, transfections can be scaled up using the same ratios. The next day, for each tracer, four 20× screening solutions in tracer dilution buffer (Promega) were prepared: two duplicates at final concentration of 20 μM and two duplicates at a final concentration of 2 μM. A competing unmodified compound was added to one of each duplicate at a final concentration of 400 μM. The four resulting solutions were diluted 4-fold in Opti-MEM without serum or phenol red to generate 5× solutions (5 µM and 0.5 µM tracer +/− 100 μM competing compound). To screen the library, a BioTek MultiFlo FX liquid dispenser was used to dispense 22.5 µL of tracer solution to the top 4 rows and 22.5 µL tracer + competing compound solution to the 4 bottom rows. Plates were briefly mixed on an orbital shaker and incubated for 1.5 h at room temperature. […]

F2RL3 = target: T2, F2RL3 (Homo sapiens, UniProt Q96RI0); assay: NanoBRET screen HiBiT-F2RL3 in HEK293
T2 construct: purchased Promega (in-house HiBiT-GPCR construct library, NanoBRET)
T2 sequence (Q96RI0 18-385): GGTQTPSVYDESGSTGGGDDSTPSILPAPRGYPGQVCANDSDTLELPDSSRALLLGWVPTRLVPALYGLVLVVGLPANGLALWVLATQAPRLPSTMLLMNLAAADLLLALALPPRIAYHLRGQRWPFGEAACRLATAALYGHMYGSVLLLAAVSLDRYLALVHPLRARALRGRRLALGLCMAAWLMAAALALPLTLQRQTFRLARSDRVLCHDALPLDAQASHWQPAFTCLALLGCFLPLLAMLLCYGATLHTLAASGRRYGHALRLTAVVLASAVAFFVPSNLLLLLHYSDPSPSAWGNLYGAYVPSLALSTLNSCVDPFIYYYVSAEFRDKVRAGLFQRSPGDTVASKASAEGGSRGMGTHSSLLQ
Procedure: as §1, §2

ADRA2B = target: T3, ADRA2B (Homo sapiens, UniProt P18089); assay: NanoBRET screen HiBiT-ADRA2B in HEK293; conditions: ADRA2B
T3 construct: purchased Promega (in-house HiBiT-GPCR construct library, NanoBRET)
T3 sequence (P18089 1-450): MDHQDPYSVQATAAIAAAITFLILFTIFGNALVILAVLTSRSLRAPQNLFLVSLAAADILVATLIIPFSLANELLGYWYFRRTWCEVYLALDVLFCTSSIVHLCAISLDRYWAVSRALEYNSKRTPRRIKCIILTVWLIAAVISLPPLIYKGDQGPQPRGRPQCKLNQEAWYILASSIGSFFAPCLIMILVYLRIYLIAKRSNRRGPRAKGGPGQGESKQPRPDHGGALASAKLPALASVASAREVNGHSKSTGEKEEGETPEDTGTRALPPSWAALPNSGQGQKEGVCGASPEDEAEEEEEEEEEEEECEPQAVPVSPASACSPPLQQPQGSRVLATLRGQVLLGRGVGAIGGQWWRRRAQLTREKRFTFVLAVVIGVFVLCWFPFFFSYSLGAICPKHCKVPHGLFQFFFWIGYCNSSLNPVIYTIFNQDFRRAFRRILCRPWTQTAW

T1 sequence (P48146 whole entry): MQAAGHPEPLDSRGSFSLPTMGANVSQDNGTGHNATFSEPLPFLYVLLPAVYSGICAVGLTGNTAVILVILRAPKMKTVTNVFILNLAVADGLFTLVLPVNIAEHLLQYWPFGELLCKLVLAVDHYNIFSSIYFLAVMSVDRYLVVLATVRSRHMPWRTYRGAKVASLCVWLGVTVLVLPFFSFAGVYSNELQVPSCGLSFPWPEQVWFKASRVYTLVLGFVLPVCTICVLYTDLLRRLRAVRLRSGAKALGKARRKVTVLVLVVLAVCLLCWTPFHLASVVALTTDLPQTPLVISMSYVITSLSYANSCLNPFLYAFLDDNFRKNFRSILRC

With `Cc1nc2n(c(=O)c1CCN1CCC(c3noc4cc(F)ccc34)CC1)CCCC2OC(=O)NCCOCCOCCOCCOCCNC(=O)CCc1ccc2n1[B-](F)(F)[N+]1=C(c3ccc[nH]3)C=CC1=C2` (centres unmarked) [Risperidone-2-NB590] the “NanoBRET Fold Response” value (NPBWR2; NPBWR2, tracer 0.1μM) was 1.05, the “NanoBRET Fold Response” value (NPBWR2; NPBWR2, tracer 1μM) was 1.00 and the “NanoBRET Fold Response” value (F2RL3; F2RL3, tracer 0.1μM) was 0.98. For the same compound, the “NanoBRET Fold Response” value (F2RL3; F2RL3, tracer 1μM) was 0.97.

In the case of `CCOC(=O)c1cc(C#N)c(N2CCC(C(=O)NS(=O)(=O)Cc3ccccc3/C=C/C(=O)NCCNC(=O)CCc3ccc4n3[B-](F)(F)[N+]3=C(c5ccc[nH]5)C=CC3=C4)CC2)nc1C` [AZD1283-1-NB590], the “NanoBRET Fold Response” value (ADRA2B; 0.1μM) is reported as 1.09, the “NanoBRET Fold Response” value (ADRA2B; 1μM) is reported as 1.05 and the “NanoBRET Fold Response” value (NPBWR2; NPBWR2, 0.1μM) is reported as 0.95. The “NanoBRET Fold Response” value (NPBWR2; NPBWR2, 1μM) was 0.99, the “NanoBRET Fold Response” value (F2RL3; F2RL3, 0.1μM) was 1.04 and the “NanoBRET Fold Response” value (F2RL3; F2RL3, 1μM) was 1.09.

`Cc1cc2c(s1)Nc1ccccc1N=C2N1CCN(CCCNC(=O)CCOCCOCCOCCOCCNC(=O)CCc2ccc3n2[B-](F)(F)[N+]2=C(c4ccc[nH]4)C=CC2=C3)CC1` [Olanzapine-a-2-NB590] was tested, and the “NanoBRET Fold Response” value (NPBWR2; NPBWR2, tracer 0.1μM) was 0.98, the “NanoBRET Fold Response” value (NPBWR2; NPBWR2, tracer 1μM) was 1.02 and the “NanoBRET Fold Response” value (F2RL3; F2RL3, tracer 0.1μM) was 1.04. For the same compound, the “NanoBRET Fold Response” value (F2RL3; F2RL3, tracer 1μM) was 0.98.

With `COc1ccccc1N1CCN(CCCCN2C(=O)c3ccc(CNC(=O)CCOCCNC(=O)c4ccc(CNC(=O)CCc5ccc6n5[B-](F)(F)[N+]5=C(c7ccc[nH]7)C=CC5=C6)cc4)cc3C2=O)CC1` [NAN-190-3-NB590] the “NanoBRET Fold Response” value (ADRA2B; tracer 0.1μM) was 4.24, the “NanoBRET Fold Response” value (ADRA2B; tracer 1μM) was 5.21 and the “NanoBRET Fold Response” value (NPBWR2; NPBWR2, tracer 0.1μM) was 0.96. For the same compound, the “NanoBRET Fold Response” value (NPBWR2; NPBWR2, tracer 1μM) was 0.79, the “NanoBRET Fold Response” value (F2RL3; F2RL3, tracer 0.1μM) was 1.15 and the “NanoBRET Fold Response” value (F2RL3; F2RL3, tracer 1μM) was 0.99.

In the case of `CC(C)N(CC[C@H](c1ccccc1)c1cc(CCNC(=O)CCOCCOCCOCCOCCNC(=O)CCc2ccc3n2[B-](F)(F)[N+]2=C(c4ccc[nH]4)C=CC2=C3)ccc1O)C(C)C` [Tolterodine-2-NB590], the “NanoBRET Fold Response” value (ADRA2B; tracer 0.1μM) is reported as 0.95, the “NanoBRET Fold Response” value (ADRA2B; tracer 1μM) is reported as 1.04 and the “NanoBRET Fold Response” value (NPBWR2; NPBWR2, tracer 0.1μM) is reported as 1.41. The “NanoBRET Fold Response” value (NPBWR2; NPBWR2, tracer 1μM) was 0.83, the “NanoBRET Fold Response” value (F2RL3; F2RL3, tracer 0.1μM) was 1.08 and the “NanoBRET Fold Response” value (F2RL3; F2RL3, tracer 1μM) was 0.97.

In the case of `CN(C)CCC=C1c2ccccc2CCc2ccc(C(=O)NCCNC(=O)CCOCCOCCOCCOCCNC(=O)CCc3ccc4n3[B-](F)(F)[N+]3=C(c5ccc[nH]5)C=CC3=C4)cc21` [Amitriptyline-b-2-NB590], the “NanoBRET Fold Response” value (NPBWR2; tracer at 0.1μM) is reported as 1.01, the “NanoBRET Fold Response” value (NPBWR2; tracer at 1μM) is reported as 0.95 and the “NanoBRET Fold Response” value (F2RL3; tracer at 0.1μM, listed as amitriptyline-b-2-NB590) is reported as 0.94. The “NanoBRET Fold Response” value (F2RL3; tracer at 1μM, listed as amitriptyline-b-2-NB590) was 1.04.

With `O=C(CCOCCOCCOCCOCCNC(=O)CCc1ccc2n1[B-](F)(F)[N+]1=C(c3ccc[nH]3)C=CC1=C2)NCCCN1CCN(C2=Nc3ccccc3Oc3ccc(Cl)cc32)CC1` [Loxapine-a-2-NB590] the “NanoBRET Fold Response” value (ADRA2B; tracer 0.1μM) was 3.38, the “NanoBRET Fold Response” value (ADRA2B; tracer 1μM) was 5.35 and the “NanoBRET Fold Response” value (NPBWR2; NPBWR2, tracer 0.1μM) was 1.07. The “NanoBRET Fold Response” value (NPBWR2; NPBWR2, tracer 1μM) was 0.93, the “NanoBRET Fold Response” value (F2RL3; F2RL3, tracer 0.1μM) was 1.00 and the “NanoBRET Fold Response” value (F2RL3; F2RL3, tracer 1μM) was 1.02.

In the case of `CN(C)CCC=C1c2ccccc2CCc2ccc(C(=O)NCCNC(=O)CCOCCOCCOCCOCCNC(=O)CCc3ccc4n3[B-](F)(F)[N+]3=C(c5ccc[nH]5)C=CC3=C4)cc21` [Amitriptyline-a-2-NB590], the “NanoBRET Fold Response” value (F2RL3; tracer at 0.1μM) is reported as 1.00 and the “NanoBRET Fold Response” value (F2RL3; tracer at 1μM) is reported as 1.03.
